Measurements as given in patent publication US20190071416A1, “COMPOUNDS FOR TREATMENT OF CANCER AND EPIGENETICS” (Agency For Science, Technology and Research, priority 2015, published 2019).

target: T1, SMYD3 (Homo sapiens, UniProt Q9H7B4); assay: SMYD3 biochemical assay (MTase-Glo, MAP3K2 peptide substrate); settings: Table 3; MTase assay, MAP3K2 peptide substrate; read-out: IC50
T1 sequence (Q9H7B4 1-428): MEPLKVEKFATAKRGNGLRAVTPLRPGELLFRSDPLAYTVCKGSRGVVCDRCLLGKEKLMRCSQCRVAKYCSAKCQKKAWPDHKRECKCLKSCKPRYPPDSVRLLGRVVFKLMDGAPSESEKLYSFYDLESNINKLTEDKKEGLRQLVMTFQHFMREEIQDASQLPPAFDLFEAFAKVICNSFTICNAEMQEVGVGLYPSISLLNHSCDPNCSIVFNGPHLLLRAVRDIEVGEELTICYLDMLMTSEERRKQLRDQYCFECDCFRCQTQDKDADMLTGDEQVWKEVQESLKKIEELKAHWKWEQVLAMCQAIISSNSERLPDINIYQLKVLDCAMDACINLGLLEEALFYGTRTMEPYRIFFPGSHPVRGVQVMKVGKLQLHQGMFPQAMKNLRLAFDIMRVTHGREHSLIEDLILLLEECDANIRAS
Summary of the method: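 Methylation of MAP3K2 peptide (10 µM final) with SAM (1.0 µM final) by SMYD3, 30 min at room temperature. SAH formed was enzymatically converted to ATP and detected as luminescence with MTase-Glo reagents; IC50 by non-linear regression.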

| IC50 [nM] | Compound |
| --- | --- |
| 2600 | CCCOC(=O)N1CCN(C(=O)c2ccc3c(Cl)c4c(nc3c2)CCCC4)C(CC(=O)OC)C1 (stereo not drawn) [A070, Propyl 4-(9-chloro-5,6,7,8-tetrahydroacridine-3-carbonyl)-3-(2-methoxy-2-oxoethyl)piperazine-1-carboxylate] |
| 170 | CCCOC(=O)N1CCN(C(=O)c2ccc3c(Cl)cc(-c4ccccc4)nc3c2)[C@@H](C)C1 [B014, Propyl (S)-4-(4-chloro-2-phenylquinoline-7-carbonyl)-3-methylpiperazine-1-carboxylate] |
| 6900 | CC(C)Cc1cc(C(=O)N2CCN(C(=O)c3ccc4c(Cl)c5c(nc4c3)CCCC5)CC2)no1 [A007, (9-Chloro-5,6,7,8-tetrahydroacridin-3-yl)(4-(5-isobutylisoxazole-3-carbonyl)piperazin-1-yl)methanone] |
| 1300 | CCCOC(=O)N1CCN(C(=O)c2ccc3c(Cl)cc(-c4ccc(F)c(C)c4)nc3c2)CC1 [B068, Propyl 4-(4-chloro-2-(4-fluoro-3-methylphenyl)quinoline-7-carbonyl)piperazine-1-carboxylate] |
| 420 | CCCOC(=O)N1CCN(C(=O)c2ccc3c(Cl)c(C)c(-c4ccc(C#N)cc4)nc3c2)C[C@H]1C [B114, Propyl (R)-4-(4-chloro-2-(4-cyanophenyl)-3-methylquinoline-7-carbonyl)-2-methylpiperazine-1-carboxylate] |
| 560 | CCCOC(=O)N1CCN(C(=O)c2ccc3c(Cl)cc(-c4ccc(OC)c(C#N)c4)nc3c2)C[C@H]1C [B106, Propyl (R)-4-(4-chloro-2-(3-cyano-4-methoxyphenyl)quinoline-7-carbonyl)-2-methylpiperazine-1-carboxylate] |
| 3100 | CCCOC(=O)N1CCN(C(=O)c2ccc3c(Cl)cc(Nc4cccnc4)nc3c2)CC1 [B042, Propyl 4-(4-chloro-2-(pyridin-3-ylamino)quinoline-7-carbonyl)piperazine-1-carboxylate] |
| 57 | CCCOC(=O)N1CCN(C(=O)c2ccc3c(Cl)cc(-c4ccc(CN)cc4)nc3c2)C[C@H]1C [B064, Propyl (R)-4-(2-(4-(aminomethyl)phenyl)-4-chloroquinoline-7-carbonyl)-2-methylpiperazine-1-carboxylate] |
| 170 | CCCOC(=O)N1CCN(C(=O)c2ccc3c(Cl)cc(-c4ccc(C(C)(C)O)c(F)c4)nc3c2)C[C@H]1C [B269, Propyl (R)-4-(4-chloro-2-(3-fluoro-4-(2-hydroxypropan-2-yl)phenyl)quinoline-7-carbonyl)-2-methylpiperazine-1-carboxylate] |
| 18 | CCCOC(=O)N1CCN(C(=O)c2ccc3c(Cl)cc(-c4ccc5c(cnn5C)c4)nc3c2)C[C@@H]1C [B144, Propyl (S)-4-(4-chloro-2-(1-methyl-1H-indazol-5-yl)quinoline-7-carbonyl)-2-methylpiperazine-1-carboxylate] |
| 830 | CCCOC(=O)N1CCN(C(=O)c2ccc3c(Cl)cc(-c4cc[nH]n4)nc3c2)CC1 [B138, Propyl 4-(4-chloro-2-(1H-pyrazol-5-yl)quinoline-7-carbonyl)piperazine-1-carboxylate] |
| 1200 | CCCOC(=O)N1CCN(C(=O)c2ccc3c(Cl)c4c(nc3c2)CCCC4)CC1CO (stereo not drawn) [A032, Propyl 4-(9-chloro-5,6,7,8-tetrahydroacridine-3-carbonyl)-2-(hydroxymethyl)piperazine-1-carboxylate] |
| 160 | CCCOC(=O)N1CCN(C(=O)c2ccc3c(Cl)c(C)c(-c4ccccc4)nc3c2)C[C@@H]1C [B006, Propyl (S)-4-(4-chloro-3-methyl-2-phenylquinoline-7-carbonyl)-2-methylpiperazine-1-carboxylate] |
| 1300 | CCCOC(=O)N1CCN(C(=O)c2ccc3c(Cl)c(C)c(-c4ccc(Cl)cc4)nc3c2)CC1 [B021, Propyl 4-(4-chloro-2-(4-chlorophenyl)-3-methylquinoline-7-carbonyl)piperazine-1-carboxylate] |
| 34 | CCCOC(=O)N1CCN(C(=O)c2ccc3c(Cl)cc(-c4cnn(CC(F)(F)F)c4)nc3c2)C[C@H]1C [B275, Propyl (R)-4-(4-chloro-2-(1-(2,2,2-trifluoroethyl)-1H-pyrazol-4-yl)quinoline-7-carbonyl)-2-methylpiperazine-1-carboxylate] |
| 670 | CCCOC(=O)N1CCN(C(=O)c2ccc3c(Cl)cc(-c4ccc(COCC5CC5)cc4)nc3c2)CC1 [B242, Propyl 4-(4-chloro-2-(4-((cyclopropylmethoxy)methyl)phenyl)quinoline-7-carbonyl)piperazine-1-carboxylate] |
| 340 | CCCOC(=O)N1CCN(C(=O)c2ccc3c(Cl)c4c(nc3c2)CC(c2ncccc2F)CC4)C[C@@H]1C (stereo partly drawn) [A124, Propyl (2S)-4-(9-chloro-6-(3-fluoropyridin-2-yl)-5,6,7,8-tetrahydroacridine-3-carbonyl)-2-methylpiperazine-1-carboxylate] |

| IC50 [nM] | Compound |
| --- | --- |
| 67 | CCCOC(=O)N1CCN(C(=O)c2ccc3c(Cl)cc(-c4ccc(C(C)(C)O)cc4)nc3c2)C[C@H]1C [B265, Propyl (R)-4-(4-chloro-2-(4-(2-hydroxypropan-2-yl)phenyl)quinoline-7-carbonyl)-2-methylpiperazine-1-carboxylate] |
| 700 | CCCOC(=O)N1CCN(C(=O)c2ccc3c(Cl)cc(-c4cnn(C(F)F)c4)nc3c2)CC1 [B230, Propyl 4-(4-chloro-2-(1-(difluoromethyl)-1H-pyrazol-4-yl)quinoline-7-carbonyl)piperazine-1-carboxylate] |
| 250 | CCCOC(=O)N1CCN(C(=O)c2ccc3c(Cl)cc(-c4cnn(C)c4)nc3c2)CC1 [B179, Propyl 4-(4-chloro-2-(1-methyl-1H-pyrazol-4-yl)quinoline-7-carbonyl)piperazine-1-carboxylate] |
| 120 | CCCOC(=O)N1CCN(C(=O)c2ccc3c(Cl)cc(-c4ccc(CN)c(C)c4)nc3c2)CC1 [B108, Propyl 4-(2-(4-(aminomethyl)-3-methylphenyl)-4-chloroquinoline-7-carbonyl)piperazine-1-carboxylate] |
| 120 | CCCOC(=O)N1CCN(C(=O)c2ccc3c(Cl)cc(-c4ccc(OC)c(CN(C)C)c4)nc3c2)CC1 [B104, Propyl 4-(4-chloro-2-(3-((dimethylamino)methyl)-4-methoxyphenyl)quinoline-7-carbonyl)piperazine-1-carboxylate] |
| 230 | CCCOC(=O)N1CCN(C(=O)c2ccc3c(Cl)c4c(nc3c2)CC(c2ccnc(C(N)=O)c2)CC4)C[C@H]1C (stereo partly drawn) [A141, Propyl (2R)-4-(6-(2-carbamoylpyridin-4-yl)-9-chloro-5,6,7,8-tetrahydroacridine-3-carbonyl)-2-methylpiperazine-1-carboxylate] |
| 310 | CCCOC(=O)N1CCN(C(=O)c2ccc3c(Cl)c4c(nc3c2)CC(c2cncnc2)CC4)CC1 (stereo not drawn) [A057, Propyl 4-(9-chloro-6-(pyrimidin-5-yl)-5,6,7,8-tetrahydroacridine-3-carbonyl)piperazine-1-carboxylate] |
| 130 | CCCOC(=O)N1CCN(C(=O)c2ccc3c(Cl)cc(-c4ccn(C)c4)nc3c2)[C@@H](C)C1 [B194, Propyl (S)-4-(4-chloro-2-(1-methyl-1H-pyrrol-3-yl)quinoline-7-carbonyl)-3-methylpiperazine-1-carboxylate] |
| 870 | CCCOC(=O)N1CCN(C(=O)c2ccc3c(Cl)cc(-c4cnc(N)nc4)nc3c2)CC1 [B185, Propyl 4-(2-(2-aminopyrimidin-5-yl)-4-chloroquinoline-7-carbonyl)piperazine-1-carboxylate] |
| 840 | CCCOC(=O)N1CCN(C(=O)c2ccc3c(Cl)c4c(nc3c2)CCCC4)CC1COC (stereo not drawn) [A110, Propyl 4-(9-chloro-5,6,7,8-tetrahydroacridine-3-carbonyl)-2-(methoxymethyl)piperazine-1-carboxylate] |
| 2700 | CCCOC(=O)N1CCN(C(=O)c2ccc3c(Cl)c4c(nc3c2)CCCC4)CC1CCO (stereo not drawn) [A060, Propyl 4-(9-chloro-5,6,7,8-tetrahydroacridine-3-carbonyl)-2-(2-hydroxyethyl)piperazine-1-carboxylate] |
| 1000 | CCCOC(=O)N1CCN(C(=O)c2ccc3c(Cl)c(C)c(-c4cccc(C(N)=O)c4)nc3c2)CC1 [B035, Propyl 4-(2-(3-carbamoylphenyl)-4-chloro-3-methylquinoline-7-carbonyl)piperazine-1-carboxylate] |
| 130 | CCCOC(=O)N1CCN(C(=O)c2ccc3c(Cl)cc(-c4ccc(C(C)(C)CN(C)C)cc4)nc3c2)CC1 [B287, Propyl 4-(4-chloro-2-(4-(1-(dimethylamino)-2-methylpropan-2-yl)phenyl)quinoline-7-carbonyl)piperazine-1-carboxylate] |
| 430 | CCCOC(=O)N1CCN(C(=O)c2ccc3c(Cl)cc(-c4ccc(S(=O)(=O)NC)cc4)nc3c2)CC1 [B116, Propyl 4-(4-chloro-2-(4-(N-methylsulfamoyl)phenyl)quinoline-7-carbonyl)piperazine-1-carboxylate] |
| 160 | CCCOC(=O)N1CCN(C(=O)c2ccc3c(Cl)c4c(nc3c2)CC(CCN)CC4)CC1 (stereo not drawn) [A076, Propyl 4-(6-(2-aminoethyl)-9-chloro-5,6,7,8-tetrahydroacridine-3-carbonyl)piperazine-1-carboxylate] |
| 290 | C#CCC1CCc2c(nc3cc(C(=O)N4CCN(C(=O)OCCC)C[C@@H]4C)ccc3c2Cl)C1 (stereo partly drawn) [A137, Propyl (3S)-4-(9-chloro-6-(prop-2-yn-1-yl)-5,6,7,8-tetrahydroacridine-3-carbonyl)-3-methylpiperazine-1-carboxylate] |
